# Experimental data taken from the supplement of paper PMC10307832.
# Legend:
# Assay in all cases: relative viability (nuclei count vs DMSO), 5 days (fraction); higher = more cells survive
# [1] = compound: CCN1C(=O)C2=CC(=C(N=C2N(C1=O)C3CC3)N)C(=O)N + CC(=O)Nc1cccc(-n2c(=O)n(C3CC3)c(=O)c3c(Nc4ccc(I)cc4F)n(C)c(=O)c(C)c32)c1 [Trametinib] (partner 0.02 µM)
# Procedure, shortened: (§1)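 Dosing by pin tool came one day after lung cancer cell lines were seeded in 1536-well plates, using either one drug or a fixed anchor-drug dose plus five library-drug doses (not always all listed) in √10 steps. After 5 days, nuclei were counted on 4× images. Relative viability is treated-well nuclei count divided by vehicle-well nuclei count, and values are medians of duplicate plates.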
# [2] = compound: CCN1C(=O)C2=CC(=C(N=C2N(C1=O)C3CC3)N)C(=O)N + CC(=O)c1c(C)c2cnc(Nc3ccc(N4CCNCC4)cn3)nc2n(C2CCCC2)c1=O [Palbociclib] (partner 0.5 µM)
# Procedure, shortened: as §1
# [3] = compound: CCN1C(=O)C2=CC(=C(N=C2N(C1=O)C3CC3)N)C(=O)N + Cc1cc(Nc2cc(N3CCN(C)CC3)nc(Sc3ccc(NC(=O)C4CC4)cc3)n2)n[nH]1 [Tozasertib] (partner 0.1 µM)
# Procedure, shortened: as §1
# [4] = compound: CCN1C(=O)C2=CC(=C(N=C2N(C1=O)C3CC3)N)C(=O)N + Cc1nc(Nc2ncc(C(=O)Nc3c(C)cccc3Cl)s2)cc(N2CCN(CCO)CC2)n1 [Dasatinib] (partner 0.075 µM)
# Procedure, shortened: as §1
# [5] = compound: CCN1C(=O)C2=CC(=C(N=C2N(C1=O)C3CC3)N)C(=O)N + NC(=O)Nc1cc(-c2cccc(F)c2)sc1C(=O)N[C@H]1CCCNC1 [AZD7762] (partner 0.2 µM)
# Procedure, shortened: as §1
Cell Line,relative viability ([1]; first compound 0.253 µM),relative viability ([1]; first compound 0.8 µM),relative viability ([1]; first compound 2.53 µM),relative viability ([1]; first compound 8 µM),relative viability ([2]; first compound 0.253 µM),relative viability ([2]; first compound 0.8 µM),relative viability ([2]; first compound 2.53 µM),relative viability ([2]; first compound 8 µM),relative viability ([3]; first compound 0.253 µM),relative viability ([3]; first compound 0.8 µM),relative viability ([3]; first compound 2.53 µM),relative viability ([3]; first compound 8 µM),relative viability ([4]; first compound 0.253 µM),relative viability ([4]; first compound 0.8 µM),relative viability ([4]; first compound 2.53 µM),relative viability ([4]; first compound 8 µM),relative viability ([5]; first compound 0.253 µM),relative viability ([5]; first compound 0.8 µM),relative viability ([5]; first compound 2.53 µM),relative viability ([5]; first compound 8 µM)
NCI-H650,0.994,0.929,0.905,1.04,0.363,0.299,0.342,0.334,0.704,0.759,0.67,0.702,0.434,0.349,0.424,0.373,1.14,0.781,0.999,1.3
NCI-H2009,0.274,0.271,0.262,0.281,0.208,0.184,0.21,0.186,0.732,0.751,0.697,0.809,0.289,0.291,0.275,0.259,,,,
EPLC-272H,0.261,0.239,0.327,0.298,0.309,0.358,0.331,0.358,0.289,0.227,0.229,0.224,0.425,0.394,0.377,0.431,0.229,0.206,0.278,0.193
NCI-H520,0.65,0.692,0.657,0.676,0.24,0.228,0.185,0.203,0.426,0.397,0.382,0.451,0.17,0.222,0.222,0.31,,,,
NCI-H2405,0.689,,0.661,0.602,0.523,,0.554,0.527,0.823,0.777,0.757,0.732,0.196,0.185,0.227,0.174,0.868,,0.928,0.725
NCI-H2085,0.588,0.538,0.52,0.428,0.479,0.446,0.441,0.445,0.85,0.726,0.867,0.613,0.224,0.259,0.227,0.23,0.989,0.915,0.921,1.04
NCI-H322M,0.522,0.457,0.469,0.586,0.478,0.455,0.482,0.502,0.526,0.475,0.493,0.511,0.275,0.224,0.256,0.248,0.611,0.548,0.551,0.599
NCI-H1944,0.451,0.445,0.353,0.427,0.421,0.324,0.33,0.365,0.26,0.266,0.247,0.279,0.22,0.217,0.213,0.217,0.541,0.479,0.528,0.487
